Data: publication PMC7404309, “Regulation of ABA-Non-Activated SNF1-Related Protein Kinase 2 Signaling Pathways by Phosphatidic Acid” (International Journal of Molecular Sciences, 2020)
Counter-ions that a name gives are not always drawn.

Columns and labels:
ERD10 = molecular target: T1, ERD10 (Arabidopsis thaliana, UniProt P42759); test: phospholipid blot (lipid overlay); type: binding; settings: TBST pH 7.5, 4 °C
T1 construct: GST fusion, E. coli Rosetta, glutathione-Sepharose
T1 sequence (P42759 1-260): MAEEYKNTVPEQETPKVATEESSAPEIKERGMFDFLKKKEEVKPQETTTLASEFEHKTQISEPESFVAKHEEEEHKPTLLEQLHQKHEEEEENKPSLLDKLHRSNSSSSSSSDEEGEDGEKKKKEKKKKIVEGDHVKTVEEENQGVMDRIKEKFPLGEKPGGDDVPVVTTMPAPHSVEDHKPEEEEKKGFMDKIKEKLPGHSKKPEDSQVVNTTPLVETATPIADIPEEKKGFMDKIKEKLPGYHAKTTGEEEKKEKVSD

PP2CA = molecular target: T2, PP2CA (Arabidopsis thaliana, UniProt P49598); test: ProFluor Ser/Thr PPase fluorescence assay; type: biochemical
T2 construct: GST fusion, E. coli Rosetta, glutathione-Sepharose
T2 sequence (P49598 1-399): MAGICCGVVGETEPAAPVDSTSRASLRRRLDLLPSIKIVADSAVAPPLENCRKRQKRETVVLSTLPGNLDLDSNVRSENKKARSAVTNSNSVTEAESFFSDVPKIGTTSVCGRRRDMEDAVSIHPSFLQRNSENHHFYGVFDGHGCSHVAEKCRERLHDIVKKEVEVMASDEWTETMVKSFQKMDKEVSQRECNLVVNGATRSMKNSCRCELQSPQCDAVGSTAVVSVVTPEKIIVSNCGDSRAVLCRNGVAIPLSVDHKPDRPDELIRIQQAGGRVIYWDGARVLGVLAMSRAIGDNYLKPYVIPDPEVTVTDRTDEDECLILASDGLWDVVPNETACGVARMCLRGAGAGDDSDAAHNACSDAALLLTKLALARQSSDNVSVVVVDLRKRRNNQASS

ABI1 = molecular target: T3, ABI1 (Arabidopsis thaliana, UniProt P49597); test: ProFluor Ser/Thr PPase fluorescence assay; type: biochemical
T3 construct: GST fusion, E. coli Rosetta, glutathione-Sepharose
T3 sequence (P49597 1-434): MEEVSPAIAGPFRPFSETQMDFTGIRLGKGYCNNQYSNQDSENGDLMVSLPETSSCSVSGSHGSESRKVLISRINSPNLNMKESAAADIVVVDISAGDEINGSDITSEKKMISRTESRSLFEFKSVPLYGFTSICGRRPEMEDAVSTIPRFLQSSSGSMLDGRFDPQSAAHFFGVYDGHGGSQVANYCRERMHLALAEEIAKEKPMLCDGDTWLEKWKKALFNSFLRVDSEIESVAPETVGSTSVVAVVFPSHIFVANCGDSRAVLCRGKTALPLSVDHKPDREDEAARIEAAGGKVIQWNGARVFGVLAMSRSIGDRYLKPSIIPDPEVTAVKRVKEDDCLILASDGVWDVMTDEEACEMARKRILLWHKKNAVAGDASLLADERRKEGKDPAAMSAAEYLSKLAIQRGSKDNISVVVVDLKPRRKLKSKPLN

- phospholipid blot (lipid overlay) (ERD10): the two dehydrins bound both PA and PS
- inhibition at 50 µM (PP2CA): 50 to 60%
- inhibition at 50 µM (ABI1): 50 to 60%
Structure (SMILES): CCCCCCCC/C=C\CCCCCCCC(=O)O[C@H](COC(=O)CCCCCCCCCCCCCCC)COP(=O)(O)O [PA 16:0/18:1, 1-palmitoyl-2-oleoyl-sn-glycero-3-phosphate, sodium salt]
